Reference: patent US6737383B1, “Herbicidal oxadiazolidines” (priority 1999, dated 2004)

How the values were obtained:
surinam grass = assay: Test B pre/postemergence surinam grass; format: in vivo, Brachiaria decumbens
How it was run: (§1)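 Response is a visual 0-to-10 score relative to untreated plants, where 0 means no effect and 10 means complete control, taken twelve to sixteen days after application. Treatments went onto soil at planting and onto foliage of 1- to 4-leaf plants, using a surfactant-containing non-phytotoxic solvent.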

cocklebur = assay: Test B pre/postemergence cocklebur; format: in vivo, Xanthium strumarium
How it was run: as §1

corn = assay: Test B pre/postemergence corn; format: in vivo, Zea mays
How it was run: as §1

crabgrass = assay: Test B pre/postemergence crabgrass; format: in vivo, Digitaria sanguinalis
How it was run: as §1

giant foxtail = assay: Test B pre/postemergence giant foxtail; format: in vivo, Setaria faberii
How it was run: as §1

morningglory = assay: Test B pre/postemergence morningglory; format: in vivo, Ipomoea hederacea
How it was run: as §1

pigweed = assay: Test B pre/postemergence pigweed; format: in vivo, Amaranthus retroflexus
How it was run: as §1

rape = assay: Test B pre/postemergence rape; format: in vivo, Brassica napus
How it was run: as §1

sugar beet = assay: Test B pre/postemergence sugar beet; format: in vivo, Beta vulgaris
How it was run: as §1

wheat = assay: Test B pre/postemergence wheat; format: in vivo, Triticum aestivum
How it was run: as §1

wild oat = assay: Test B pre/postemergence wild oat; format: in vivo, Avena fatua
How it was run: as §1

purple nutsedge = assay: Test B pre/postemergence purple nutsedge; format: in vivo, Cyperus rotundus
How it was run: as §1

rice = assay: Test B flood test rice; format: in vivo, Oryza sativa
How it was run: (§2)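 Plants were grown to the 2-leaf stage before treatment with test chemical, then held in a greenhouse for twelve to sixteen days. Injury was visually rated against untreated controls on a 0–10 scale, where 0 is no effect and 10 is complete control.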

smallflower flatsedge = assay: Test B flood test smallflower flatsedge; format: in vivo, Cyperus difformis
How it was run: as §2

duck salad = assay: Test B flood test duck salad; format: in vivo, Heteranthera limosa
How it was run: as §2

bamyardgrass = assay: Test B flood test barnyardgrass; format: in vivo, Echinochloa crus-galli
How it was run: as §2

[1] = Preemergence, Rate 62 g/ha, scale of 0 to 10 where 0 is no effect and 10 is complete control
[2] = Preemergence, Rate 250 g/ha, scale of 0 to 10 where 0 is no effect and 10 is complete control
[3] = Preemergence, Rate 500 g/ha, scale of 0 to 10 where 0 is no effect and 10 is complete control
[4] = Rate 62 g/ha, Postemergence, scale 0 to 10 (0 no effect, 10 complete control)
[5] = Rate 125 g/ha, Postemergence, scale of 0 to 10 where 0 is no effect and 10 is complete control
[6] = Rate 125 g/ha, Preemergence, scale of 0 to 10 where 0 is no effect and 10 is complete control
[7] = Rate 250 g/ha, Postemergence, scale of 0 to 10 where 0 is no effect and 10 is complete control
[8] = Rate 500 g/ha, Postemergence, scale 0 to 10, 0 no effect, 10 complete control
[9] = Rate 62 g/ha, headed Pre-emergence (flood test species), scale 0 to 10 (0 no effect, 10 complete control)
[10] = Rate 125 g/ha, Pre-emergence, flood test species, scale 0 to 10 where 0 is no effect and 10 is complete control
[11] = Rate 250 g/ha, Pre-emergence, flood-test species, scale 0 to 10, 0 is no effect, 10 is complete control
[12] = Rate 500 g/ha, Pre-emergence, flood test species, scale 0 to 10 (0 no effect, 10 complete control)

CC(C)N(C(=O)n1oc(=O)n(C2CCCC2)c1=O)c1ccccc1 [Compound 283]
B. signalgrass plant response rating (surinam grass; [1]): 6
B. signalgrass plant response rating (surinam grass; [2]): 10
Plant response rating, B. signalgrass (surinam grass; [3]): 10
B. signalgrass plant response rating (surinam grass; [4]): 0
B. signalgrass plant response rating (surinam grass; [5]): 0
B. signalgrass plant response rating (surinam grass; [6]): 10
Plant response rating, B. signalgrass (surinam grass; [7]): 0
B. signalgrass plant response rating (surinam grass; [8]): 2
Cocklebur plant response rating (cocklebur; [1]): 0
Cocklebur plant response rating (cocklebur; [2]): 0
Plant response rating, Cocklebur (cocklebur; [3]): 0
Cocklebur plant response rating (cocklebur; [4]): 2
Cocklebur plant response rating (cocklebur; [5]): 2
Cocklebur plant response rating (cocklebur; [6]): 0
Plant response rating, Cocklebur (cocklebur; [7]): 2
Cocklebur plant response rating (cocklebur; [8]): 2
Corn plant response rating (corn; [1]): 0
Corn plant response rating (corn; [2]): 0
Plant response rating, Corn (corn; [3]): 0
Corn plant response rating (corn; [4]): 0
Corn plant response rating (corn; [5]): 0
Corn plant response rating (corn; [6]): 0
Plant response rating, Corn (corn; [7]): 0
Corn plant response rating (corn; [8]): 0
Crabgrass plant response rating (crabgrass; [1]): 2
Plant response rating, Crabgrass (crabgrass; [3]): 7
Crabgrass plant response rating (crabgrass; [4]): 0
Crabgrass plant response rating (crabgrass; [5]): 0
Crabgrass plant response rating (crabgrass; [6]): 7
Plant response rating, Crabgrass (crabgrass; [7]): 1
Crabgrass plant response rating (crabgrass; [8]): 1
Giant foxtail plant response rating (giant foxtail; [1]): 8
Giant foxtail plant response rating (giant foxtail; [2]): 10
Plant response rating, Giant foxtail (giant foxtail; [3]): 10
Giant foxtail plant response rating (giant foxtail; [4]): 0
Giant foxtail plant response rating (giant foxtail; [5]): 3
Giant foxtail plant response rating (giant foxtail; [6]): 9
Plant response rating, Giant foxtail (giant foxtail; [7]): 4
Giant foxtail plant response rating (giant foxtail; [8]): 7
Morningglory plant response rating (morningglory; [1]): 0
Morningglory plant response rating (morningglory; [2]): 0
Plant response rating, Morningglory (morningglory; [3]): 0
Morningglory plant response rating (morningglory; [4]): 8
Morningglory plant response rating (morningglory; [5]): 9
Morningglory plant response rating (morningglory; [6]): 0
Plant response rating, Morningglory (morningglory; [7]): 9
Morningglory plant response rating (morningglory; [8]): 10
Redroot pigweed plant response rating (pigweed; [1]): 2
Redroot pigweed plant response rating (pigweed; [2]): 10
Plant response rating, Redroot pigweed (pigweed; [3]): 10
Redroot pigweed plant response rating (pigweed; [4]): 4
Redroot pigweed plant response rating (pigweed; [5]): 4
Redroot pigweed plant response rating (pigweed; [6]): 6
Plant response rating, Redroot pigweed (pigweed; [7]): 5
Redroot pigweed plant response rating (pigweed; [8]): 7
Rape plant response rating (rape; [1]): 0
Rape plant response rating (rape; [2]): 2
Plant response rating, Rape (rape; [3]): 8
Rape plant response rating (rape; [4]): 2
Rape plant response rating (rape; [5]): 3
Plant response rating, Rape (rape; [7]): 4
Rape plant response rating (rape; [8]): 7
Sugarbeets plant response rating (sugar beet; [1]): 0
Sugarbeets plant response rating (sugar beet; [2]): 2
Plant response rating, Sugarbeets (sugar beet; [3]): 5
Sugarbeets plant response rating (sugar beet; [4]): 0
Sugarbeets plant response rating (sugar beet; [5]): 2
Sugarbeets plant response rating (sugar beet; [6]): 0
Plant response rating, Sugarbeets (sugar beet; [7]): 2
Sugarbeets plant response rating (sugar beet; [8]): 2
Wheat plant response rating (wheat; [1]): 0
Wheat plant response rating (wheat; [2]): 1
Plant response rating, Wheat (wheat; [3]): 6
Wheat plant response rating (wheat; [4]): 0
Wheat plant response rating (wheat; [5]): 0
Wheat plant response rating (wheat; [6]): 0
Plant response rating, Wheat (wheat; [7]): 0
Wheat plant response rating (wheat; [8]): 0
Wild oats plant response rating (wild oat; [1]): 0
Wild oats plant response rating (wild oat; [2]): 4
Plant response rating, Wild oats (wild oat; [3]): 7
Wild oats plant response rating (wild oat; [4]): 0
Wild oats plant response rating (wild oat; [5]): 0
Plant response rating, Wild oats (wild oat; [7]): 0
Wild oats plant response rating (wild oat; [8]): 0
Nutsedge plant response rating (purple nutsedge; [1]): 0
Nutsedge plant response rating (purple nutsedge; [2]): 0
Plant response rating, Nutsedge (purple nutsedge; [3]): 0
Nutsedge plant response rating (purple nutsedge; [4]): 0
Nutsedge plant response rating (purple nutsedge; [5]): 0
Nutsedge plant response rating (purple nutsedge; [6]): 0
Plant response rating, Nutsedge (purple nutsedge; [7]): 0
Nutsedge plant response rating (purple nutsedge; [8]): 0
Rice plant response rating (rice; [9]): 0
Rice plant response rating (rice; [10]): 0
Rice plant response rating (rice; [11]): 0
Rice plant response rating (rice; [12]): 1
S. Flatsedge plant response rating (smallflower flatsedge; [9]): 0
S. Flatsedge plant response rating (smallflower flatsedge; [10]): 0
S. Flatsedge plant response rating (smallflower flatsedge; [11]): 0
S. Flatsedge plant response rating (smallflower flatsedge; [12]): 5
Ducksalad plant response rating (duck salad; [9]): 0
Ducksalad plant response rating (duck salad; [10]): 0
Ducksalad plant response rating (duck salad; [11]): 0
Ducksalad plant response rating (duck salad; [12]): 0
Barnyardgrass plant response rating (bamyardgrass; [9]): 0
Barnyardgrass plant response rating (bamyardgrass; [10]): 3
Barnyardgrass plant response rating (bamyardgrass; [11]): 6
Barnyardgrass plant response rating (bamyardgrass; [12]): 6
